Laboratory results from US20080200501A1, “NOVEL CANNABINOID RECEPTOR LIGANDS, PHARMACEUTICAL COMPOSITIONS CONTAINING THEM, AND PROCESSES FOR THEIR PREPARATION” (Glenmark Pharmaceuticals S.A., priority 2006, published 2008).

How the values were obtained:
[1] = Pharmacokinetic study, single oral dose in rats; assay type: in vivo; conditions: Sprague-Dawley, rat; mean; male Sprague-Dawly rats, single oral dose 10 mg/kg in 0.5% methylcellulose suspension, overnight fasted; plasma, HPLC-UV
Protocol: Male Sprague-Dawly rats were administered by oral gavage a single oral dose of 10 mg/kg b.wt. test compound in 0.5% methylcellulose suspension in overnight fasted (12 hrs before dose) condition. Fasting was continued till 4 hr post dose. Blood samples were collected predose and at 15 and 30 minutes and 1, 2, 3, 4, 6, 8, 12 and 24 hrs post-dose and were kept on an ice bath till further processing. These samples were separated for plasma by centrifuging at 4° C. for 10 minutes at 1000×g and then stored at −70° C. till further analysis. These samples were analyzed for the levels of the test compound by HPLC-UV and the pharmacokinetic parameters were calculated using these concentrations by using WinNonlin software (Pharsight Inc., USA, Version 5.1).

**Q.** Which melting point does the source give for CCCCCC(C)(C)NC(=O)c1nn(-c2ccc(F)cc2F)c2c1C1CCC2C1 (stereo not drawn) here?
**A.** The melting point was 76 to 78 °C.

**Q.** Which AUC(0-inf) [1] does the source give for CC(C)(CO)NC(=O)c1nn(-c2ccc(Cl)cc2)c2c1[C@@H]1CC[C@H]2C1 (single isomer, unassigned) [Compound 98, (1S,7R)- or (1R,7S)-N5-(2-Hydroxy-1,1-dimethylethyl)-3-(4-chlorophenyl)-3,4-diazatricyclo[5.2.1.0^2,6]deca-2(6),4-diene-5-carboxamide] here?
**A.** Its AUC(0-inf) is 12000 ng·h/mL.

**Q.** What about the AUC(0-t) [1] of the same compound?
**A.** Its AUC(0-t) is 11700 ng·h/mL.

**Q.** What about the Cmax [1] of the same compound?
**A.** The Cmax was 1950 ng/mL.

**Q.** And the Tmax [1]?
**A.** Its Tmax is 0.5 h.

**Q.** And the half-life [1]?
**A.** The half-life was 4.77 h.
